{
  "source": "patent US11980633B2",
  "about": "“Method for treating cancer using a combination of DNA-damaging agents and DNA-PK inhibitors” (Vertex Pharmaceuticals Incorporated, priority 2016, dated 2024)",
  "system": "A549 lung cancer cells",
  "experiment": "Timing and duration of Compound B-2 exposure on sensitization of A549 cells to doxorubicin hydrochloride (24 h); CellTiterGlo viability at 6 days, Bliss analysis",
  "assay_type": "cell-based, human",
  "set-up": "scale not given here",
  "experimental": "Cell lines, reagents, equipment, software: The human cancer cell line A549 (CCL-185) was obtained from American Type Culture Collection (ATCC; Manassas, VA). Compound B-2 used in these experiments was not prepared as a co-crystal. A 10 mM stock solution of Compound B-2 was prepared in DMSO (ATCC catalog #4-X) and stored at −20° C. Doxorubicin hydrochloride (dox) was obtained from Sigma (St. Louis, MO) (catalog #D1515), dissolved in DMSO to a 10 mM concentration and stored at −20° C.\nCell culture: The A549 human lung cancer cell line was cultured in DMEM (Life Technologies, catalog #11995) supplemented with 10% fetal bovine serum (Hyclone, catalog #SH30071.03), 1× GlutaMAX (Life Technologies, catalog #35050-061), pyruvate (Life Technologies, catalog #11360-070) and 1× Penicillin/Streptomycin (Life Technologies, catalog #15070) (complete medium). Cells were maintained at a sub-confluent state by passaging every 3-4 days. Cells were plated at 1000 cells per well in a 96-well, clear-bottomed microplate (Corning, catalog #3904), and incubated in a 37° C., 5% CO2 incubator attach overnight prior to compound addition.\nTreatment with Compound B-2 and Doxorubicin hydrochloride: Ten mM stocks of Compound B-2 and doxorubicin hydrochloride were made in DMSO and added in combination to the plated cells using an HP digital dispenser D300 (Tecan, Switzerland). For these experiments, combinations with Compound B-2 at all concentrations were run in singlicate using a combination matrix in which Compound B-2 was added as a titration from 20 μM to 0.1 μM on the X-axis of the plate and doxorubicin hydrochloride added in a 2-fold dilution from 80 nM to 0.125 nM for the 6 day and 24 hour co-incubation experiments and 8 nM to 0.0125 nM for the rest of the experiments on the Y-axis. One row contained only the Compound B-2 titration and one column only the doxorubicin hydrochloride titration. Two columns of cells were used as a no-treatment control from which the fractional survival of the treated cells was determined. Cells were cultured at 37° C., 5% CO2, 95% air and 100% relative humidity. The timing of compound addition, the washout of the compounds from the wells of the plates and re-addition of doxorubicin hydrochloride was as detailed in FIG. 1. Briefly, the media from all of the wells in the plate were removed by hand using a multi-pipette, fresh (no compound) media was added, then removed again and then fresh media was added one last time. The re-addition of doxorubicin hydrochloride, where indicated, was performed using the HP D300 as outlined in FIG. 1. After 24 h, all plates were washed as detailed above and fresh medium (no compound) added. The plates were incubated for an additional 5 days (6 days in total).\nCell Viability Analysis: Six days after initial compound addition, 50 μL of CellTiterGlo (prepared according to manufacturer's protocol) was added to each well of the compound titration plates. Luminescence was read on a Pherastar FS luminescence reader (BMG Labtech, Offenberg, Germany) and these values were used for all further analyses.\nComputational Methods: Cell viabilities were evaluated for a matrix of doxorubicin hydrochloride and Compound B-2 concentrations in a series of experiments testing different times of Compound B-2 addition and durations of Compound B-2 exposure. The data from each of these experiments were analyzed separately. The steps in the analysis of each experiment are described below. • 1. For each Compound B-2 concentration, the EC50 of doxorubicin hydrochloride was calculated using Prism software. The concentration in the matrix of doxorubicin hydrochloride concentrations closest to the EC50 was then identified. • 2. […]",
  "data": [
    {"molecule": "[2H]c1nc(C)nc([2H])c1-c1cc(NC[C@@H](C)c2cccc3c(C(=O)NC)ccnc23)ncn1", "note": "[Compound B-2]", "values": [
      {"measurement": "Bliss AUC", "setting": "Experiment A: Compound B-2 added 0 h after doxorubicin hydrochloride, exposure 24 h", "result": 728},
      {"measurement": "Bliss AUC", "setting": "Experiment B: Compound B-2 added at 0 h, exposure 16 h", "result": 101},
      {"measurement": "Bliss AUC", "setting": "Experiment C: Compound B-2 added at 8 h, exposure 16 h", "result": 710},
      {"measurement": "Bliss AUC", "setting": "Experiment E: Compound B-2 added at 4 h, exposure 12 h", "result": 266},
      {"measurement": "Bliss AUC", "setting": "Experiment G: Compound B-2 added at 12 h, exposure 12 h", "result": 415},
      {"measurement": "Bliss AUC", "setting": "Experiment H: Compound B-2 added at 0 h, exposure 8 h", "result": 71},
      {"measurement": "Bliss AUC", "setting": "Experiment I: Compound B-2 added at 4 h, exposure 8 h", "result": 49},
      {"measurement": "Bliss AUC", "setting": "Experiment J: Compound B-2 added at 8 h, exposure 8 h", "result": 12},
      {"measurement": "Bliss AUC", "setting": "Experiment K: Compound B-2 added at 12 h, exposure 8 h", "result": 124},
      {"measurement": "Bliss AUC", "setting": "Experiment L: Compound B-2 added at 16 h, exposure 8 h", "result": 323}
    ]}
  ]
}
